Test results from US7579371B2, “Methods of using [3.2.0] heterocyclic compounds and analogs thereof” (Nereus Pharmaceuticals, Inc., priority 2004, dated 2009).
“And” between values parts separate entries of the source, which are not always exact repeats. Equal values may be shown once.

Tested on: HL-60/MX2
Test: Cell growth inhibition assay (resazurin, 48 h)
Settings: for EC50: HL-60/MX2, 48 h
Method: The DNA binding agent Mitoxantrone was included as a control, as HL-60/MX2 cells are reported to be resistant to this chemotherapeutic agent (Harker W. G. et al. 1989).
Concentrations ranging from 6.32 μM to 2 nM were tested for II-2 and II-4.
HL-60/MX2 is a multidrug resistant tumor cell line derived from the human promyelocytic leukemia cell line, HL-60 and expresses reduced topoisomerase II activity. […] Mitoxantrone, the topoisomerase II targeting agent was included as a control.

C[C@@]12OC(=O)[C@]1([C@@H](O)[C@@H]1C=CCCC1)NC(=O)[C@@H]2CCCl [Formula II-16, Salinosporamide A]
% cytotoxicity (HL-60/MX2): 84% and 89%
EC50: 25 nM
EC50 (Homo sapiens, HL60/MX2, 48 h): 28 nM
